# In patent US20030104393A1, “Blood assessment of injury” (priority 2000, published 2003):
# Test system: blood cells
# Experiment: Genes induced in blood 24 hours following kainate induced seizures (Affymetrix microarray)
# Type: in vivo, rat
# Conditions: for Average fold induction / Minimum fold induction: rat blood 24 h after kainate induced seizures vs untouched controls
# Method: Status epilepticus is produced by intraperitoneally injecting a glutamate analogue/excitotoxin, kainic acid (10 mg/kg i.p.). Animals with kainate-induced seizures are observed following drug administration to ensure that they continue to have complex seizures over a 30 minute period.
# All animals are allowed to survive for 24 hours following each treatment. At that time they are deeply anesthetized with ketamine (100 mg/kg) and xylazine (20 mg/kg) given intraperitoneally. Once anesthetized, the chest is opened and a direct cardiac puncture performed with a syringe and 10 cc of blood is aspirated. Immediately following removal of the blood, the animal is decapitated while deeply anesthetized and the brain removed.
# One day after hypoxia, status epilepticus, hypoglycemia, ischemic stroke, and hemorrhagic stroke are produced in adult rats, RNA or protein is isolated from the blood cells and from the brains of the animals described in Example 1. The pattern of genes or proteins expressed in the blood cells following each of these types of injury—hypoxia, status epilepticus, hypoglycemia, ischemic stroke, and hemorrhagic stroke is captured on a commercially available microarray (Affymetrix chip). The pattern of gene or protein expression is defined using an expression method, which then forms a genomic or proteomic organ injury database, which is used in assessing injury.
# For the tables of genes induced in the blood, the genome expression of blood in the hypoxic animals (3 animals) was compared to the genome expression of blood in untouched control animals (3 animals). The genome expression of blood in the animals with status epilepticus (3 animals) was compared to the genome expression of blood in the untouched control animals (3 animals). The genome expression of blood in the animals with stroke (3 animals) was compared to the genome expression of blood in the sham operated control animals (3 animals). In each case the accession number of the gene and the fold change in gene expression is given—with a maximum estimate and a minimum estimate.
# Table 2 sets forth genes induced in the blood of rats 24 hours following kainate induced seizures (n=3 rats) as compared with genes expressed in the blood of untouched control rats (n=3 rats). The accession number of the gene is given, the name of the gene is given where known, the average fold induction is given, as well as the minimum fold induction is given for each gene. A number of the genes are ESTs that have not yet been subjected to a BLAST search. This list was shortened to show only those genes induced at least 2.8 fold. Over 100 genes were induced following kainate on arrays that contained over 8000 genes.
# [1] = gene AF027571_s_at phospholipase C-beta 4 isoform (PLC-b4)
# [2] = gene AF091563_i_at isolate QIL-LD1 olfactory receptor
# [3] = gene AF102552_s_at ankyrin G isoform
# [4] = gene D84485_at PMSG-induced ovarian mRNA
# [5] = gene L42855_at RNA polymerase II transcription factor SIII p18 subunit
# [6] = gene L81136cds_f_at Rps2r1 preliminary DNA
# [7] = gene M96159_at adenylyl cyclase type V
# [8] = gene S54212_at ciliary neurotrophic factor receptor alpha
# [9] = gene U66566_at receptor type protein tyrosine phophatase psi
# [10] = gene X06827_at porphobilinogen deaminase
# [11] = gene Z28351exon_s_at 25-hydroxyvitamin D3 24-hydroxylase
smiles,measurement,setting,value
"C=C(C)[C@H]1CN[C@H](C(=O)O)[C@H]1CC(=O)O [kainate, kainic acid]",Average fold induction,[1],4.15 fold
same,Minimum fold induction,[1],2.5 fold
same,Average fold induction,gene AF045464_s_at,6.5 fold
same,Minimum fold induction,gene AF045464_s_at,2.5 fold
same,Average fold induction,gene AF079162_at patched (ptc),5.4 fold
same,Minimum fold induction,gene AF079162_at patched (ptc),3.2 fold
same,Average fold induction,[2],3.4 fold
same,Minimum fold induction,[2],2.4 fold
same,Average fold induction,[3],4.6 fold
same,Minimum fold induction,[3],2.4 fold
same,Average fold induction,[4],11.4 fold
same,Minimum fold induction,[4],3.1 fold
same,Average fold induction,gene D89863_g_at (M-ras) M-Ras,5.6 fold
same,Minimum fold induction,gene D89863_g_at (M-ras) M-Ras,2.3 fold
same,Average fold induction,[5],4.32 fold
same,Minimum fold induction,[5],3.4 fold
same,Average fold induction,[6],3.9 fold
same,Minimum fold induction,[6],2.7 fold
same,Average fold induction,gene L81138exon Rps2r gene,5.5 fold
same,Minimum fold induction,gene L81138exon Rps2r gene,2.3 fold
same,Average fold induction,gene M91234_f_at VL30 element,4.4 fold
same,Minimum fold induction,gene M91234_f_at VL30 element,2.5 fold
same,Average fold induction,gene M91235_f_at VL30 element,3.9 fold
same,Minimum fold induction,gene M91235_f_at VL30 element,3 fold
same,Average fold induction,[7],10 fold
same,Minimum fold induction,[7],2.9 fold
same,Average fold induction,gene Rc_AA799614_at,4.7 fold
same,Minimum fold induction,gene Rc_AA799614_at,2.5 fold
same,Average fold induction,gene Rc_AA852046_s_at,4.3 fold
same,Minimum fold induction,gene Rc_AA852046_s_at,2.5 fold
same,Average fold induction,gene Rc_AA891828_at,4 fold
same,Minimum fold induction,gene Rc_AA891828_at,2.6 fold
same,Average fold induction,gene Rc_AA894273_at,5.2 fold
same,Minimum fold induction,gene Rc_AA894273_at,2.8 fold
same,Average fold induction,gene Rc_AA925529_at,4 fold
same,Minimum fold induction,gene Rc_AA925529_at,3 fold
same,Average fold induction,gene Rc_AA955182_g_at,9 fold
same,Minimum fold induction,gene Rc_AA955182_g_at,2.3 fold
same,Average fold induction,gene Rc_AI104924_f_at,4.1 fold
same,Minimum fold induction,gene Rc_AI104924_f_at,3.3 fold
same,Average fold induction,[8],2.8 fold
same,Minimum fold induction,[8],2.6 fold
same,Average fold induction,[9],5.5 fold
same,Minimum fold induction,[9],4.3 fold
same,Average fold induction,gene U73030_at,4.1 fold
same,Minimum fold induction,gene U73030_at,2.4 fold
same,Average fold induction,[10],3.6 fold
same,Minimum fold induction,[10],3 fold
same,Average fold induction,gene X60675_at interleukin 10,3.6 fold
same,Minimum fold induction,gene X60675_at interleukin 10,2.3 fold
same,Average fold induction,gene X76697_at B7 antigen,5.7 fold
same,Minimum fold induction,gene X76697_at B7 antigen,2.5 fold
same,Average fold induction,[11],3.5 fold
same,Minimum fold induction,[11],2.3 fold
same,Average fold induction,gene rc_AI102562_at,3 fold
same,Minimum fold induction,gene rc_AI102562_at,2.4 fold
same,Number of genes induced following kainate,"rat blood, arrays that contained over 8000 genes",Over 100 genes
